Columns and labels:
[1] = Population pharmacokinetics of caspofungin in critically ill patients receiving ECMO; format: in vivo, human
Protocol: The present analysis is part of the ASAP ECMO study program that was conducted from November 2012 to November 2019 ([8]). The ASAP ECMO study was a prospective, open-labeled multicenter pharmacokinetic study performed in six ICUs across Australia, New Zealand, South Korea, and Switzerland. A detailed study protocol has been previously described elsewhere ([8], [9]), and as such, is only briefly outlined in this paper.
Patients were eligible for recruitment if they were adult (18–90 years old) ICU patients who were receiving caspofungin while undergoing ECMO therapy for cardiac and/or respiratory failure. Patients were excluded if they required massive blood transfusion (i.e., >50% of blood volume in the preceding 8 hours), received therapeutic plasma exchange in the preceding 24 hours, had bilirubin >150 µmol/L, were pregnant, or were known to be allergic to caspofungin.
Caspofungin was reconstituted and administered as an intermittent intravenous infusion in accordance with the standard administration protocol at each participating center. Caspofungin dosing regimens, ECMO modalities/configurations, and all other subsequent patient management (e.g., RRT application) were determined by the treating clinician in accordance with local clinical guidelines and practices.
Pharmacokinetic sampling was performed during a single dosing interval once the patient had been stabilized on ECMO. Blood samples were drawn from an existing arterial line and were collected into lithium-heparinized tubes. Blood samples were collected at 0, 0.25, 0.5, 0.75, 1, 1.5, 2, 3, 6, 8, 12, and 24 hours after commencement of infusion.
The blood samples were centrifuged at 3,000 × g for 10 minutes to obtain plasma, which was then frozen at –80°C and stored locally at participating sites. The frozen plasma samples were shipped on dry ice by a commercial courier company to the central bioanalysis laboratory at the University of Queensland Centre for Clinical Research (UQCCR) for bioanalysis.
Total caspofungin concentrations in plasma were measured by a validated ultra-high performance liquid chromatography method on a Nexera X2 system connected to a Shimadzu 8030 + triple quadrupole mass spectrometer (Shimadzu Corporation, Kyoto, Japan). Dicloxacillin was used as the internal standard. The assay was performed in batches, and samples were analyzed concurrently with calibration standards and quality-control replicates at high (18 mg/L), medium (3 mg/L), and low (0.6 mg/L) concentrations. The assay limit for caspofungin in plasma was 0.1 mg/L and linearity was established within a range of 0.1–20 mg/L. Precision and accuracy at three different concentrations were all within 12%. Bioanalysis methods were performed in accordance with the U.S. Food and Drug Administration’s guidance for industry on bioanalysis ([10]).
Plasma concentration-time data for caspofungin were analyzed using a nonlinear mixed-effect modeling approach in Monolix version 2021R2 (Lixoft, Antony, France) implementing the stochastic approximation expectation maximization (SAEM) algorithm. Plasma concentration-time data for caspofungin were fitted to one- and two-compartment disposition models with first-order elimination. Between-subject variability (BSV or ω) was described using an exponential model: […]

[2] = human, in vivo; cited from earlier work
[3] = parameters: method as in PMID 17660480, PMID 11850256; conditions: human, in vivo; cited from earlier work
[4] = human, in vivo; cited from earlier work; remark: listed apart in the source
From the text: It is challenging to ascertain the optimal dosing regimen for caspofungin based on MIC breakpoints. The European Committee on Antimicrobial Susceptibility Testing (EUCAST) MIC breakpoints have yet to be established for caspofungin against Candida spp. due to significant interlaboratory variation in MIC reporting ([18]). Until this problem is resolved, Candida isolates that are susceptible to anidulafungin and micafungin should also be considered susceptible to caspofungin.

In the case of `CC[C@H](C)C[C@H](C)CCCCCCCCC(=O)N[C@H]1C[C@@H](O)[C@@H](NCCN)NC(=O)[C@@H]2[C@@H](O)CCN2C(=O)[C@H]([C@H](O)CCN)NC(=O)[C@H]([C@H](O)[C@@H](O)c2ccc(O)cc2)NC(=O)[C@@H]2C[C@@H](O)CN2C(=O)[C@H]([C@@H](C)O)NC1=O` [caspofungin], the “impact of ECMO on caspofungin pharmacokinetics” value ([1]; ECMO duration, mode and flow rate tested as covariates, no significant effect) was “negligible impact”, the “LBW effect on V, Estimate (%RSE)” value ([1]; exponent in V=Vpop × (LBW/58.9)^1.24, final model) was 1.24 (23.3) and the AUC(0-t) ([1]; human, plasma, 8 critically ill patients on ECMO, maintenance dose 50 or 70 mg daily IV, median, read-out: median AUC0–24 exposure) was 115 µg·h/mL. The “CL, Estimate (%RSE)” value ([1]; typical population value, final one-compartment model with first-order elimination, 8 ECMO patients, 64 total plasma concentrations (UHPLC-MS/MS), IV infusion, LD 70 mg then 50 or 70 mg daily) was 0.55 (11.9) L/h, the “V, Estimate (%RSE)” value ([1]; typical population value, final one-compartment model, LBW centred on 58.9 kg, 8 ECMO patients, 64 total plasma concentrations) was 8.13 (7.15) L and the “AUC0–24 exposure reported in ICU patients” value [2] was 74 to 135 µg·h/mL. The “typical clearance in other studies” value [2] was 0.27 to 0.98 L/h, the “typical volume of distribution in other studies” value [2] was 6.19 to 20.91 L and the “AUC0–24 exposure in healthy volunteers” value [3] was 98 µg·h/mL. The “dose demonstrated to be safe” value [4] was “up to 200 mg/day”.

From paper PMC11823646, “Population pharmacokinetics of caspofungin in critically ill patients receiving extracorporeal membrane oxygenation—an ASAP ECMO study” (Antimicrobial Agents and Chemotherapy, 2024)
